Test results reported in EP4311544A1, “COMPOUNDS USEFUL AGAINST JELLYFISH STINGS” (Isdin, S. A., priority 2022, dated 2024).

Experiments:
P. noctiluca [1] = experiment: Tentacle Solution Assay (TSA): inhibition of chemically stimulated nematocyst discharge; type: cell-based; parameters: key to Inhibitory effect (TSA) using 5% acetic acid as chemical stimulator Discharge: 0: no discharge was observed; +: low discharge of nematocysts; ++: medium discharge of nematocysts; +++: high discharge of nematocysts; key to Inhibitory effect (TSA) using 5% acetic acid as chemical stimulator Effect: Neutral effect solution: nematocysts were not activated after the incubation in the first solution but were activated by the subsequent chemical stimulation with 5% acetic acid solution; Reductor effect solution: nematocysts were not activated after the incubation in the first solution, but some isolated nematocysts discharge was observed activated by the subsequent chemical stimulation with 5% acetic acid solution; Inhibitory effect solution: nematocysts were not activated after the incubation in the first solution or by the subsequent chemical stimulation with 5% acetic acid solution; settings: tentacle pieces incubated 5 minutes in 3 ml solution, then 15 µl of 5% acetic acid
Description: (§1) Jellyfish cultures: Jellyfish were cultivated by laboratory conditions in Loro Parque aquarium (Tenerife, Spain). The P. noctiluca adult individuals were breeding in kreisels tanks with a continuous water renewal, 33-35‰ salinity, 22°C temperature and light cycle of 12h light/12h dark. Individuals were daily fed with Artemia sp. nauplii, small pieces of the jellyfish Aurelia sp., eggs of Merluccius and Parapenaeus longirostris.
Tentacles pieces of approximately 3 cm long were transferred to slides ([…]). The samples were observed under the light microscope in order to ensure their integrity. Subsequently, tentacles were incubated on microwells with 3 ml of each solution for 5 minutes. In order to know the inhibitory effect, the neutral solutions were chemically stimulated by means of 15 µl of 5% acetic acid solution in distilled water (an activator solution per se).
The nematocysts response was classified qualitatively in four categories in accordance with Pyo et al. (2016): • 1. 0: no discharge was observed; • 2. +: low discharge of nematocysts; • 3. ++: medium discharge of nematocysts; • 4. +++: high discharge of nematocysts.
The effect was classified in one of three categories: • 1. Neutral effect solution: nematocysts were not activated after the incubation in the first solution but were activated by the subsequent chemical stimulation with 5% acetic acid solution; • 2. Reductor effect solution: nematocysts were not activated after the incubation in the first solution, but some isolated nematocysts discharge was observed activated by the subsequent chemical stimulation with 5% acetic acid solution; • 3. Inhibitory effect solution: nematocysts were not activated after the incubation in the first solution or by the subsequent chemical stimulation with 5% acetic acid solution. Table 1. Inhibitory efficacy on the nematocyst discharge in P. noctiluca.

P. noctiluca [2] = experiment: Tentacle Skin Blood Agarose Assay (TSBAA): venom load as hemolytic area after natural stimulation of nematocyst discharge; type: cell-based; settings: for discharge of nematocysts: summary statement on the results of Examples 1 and 2
Description: as §1
Briefly, an agarose gel preparation incorporating sheep red blood cells (SRBCs) (Thermo Fisher Scientific) was used covered by a thin tissue of pig intestine to simulate the effect of the human skin barrier.
A solution of 4% low melting point agarose (INVITROGEN ™ LMP Agarose) in phosphate buffered saline (PBS) (SIGMA) was prepared and cooled to room temperature for a few minutes. The SRBCs were centrifuged and resuspended in PBS until a final concentration of 2% was obtained. Equal volumes of both preparations were mixed and poured onto a glass surface with a mold (18x7.5 cm) and allowed to cool to room temperature. Once the agarose with SRBCs was set, rectangles were cut and placed on slides and kept at 4 °C in a humidification chamber (maximum 72 hours until use).
Pig small intestine tissue was washed in a 50 mM saline solution and then cut in rectangular sections. The sections were sterilized in a disinfecting solution consisting of 87% 110 mM saline, 10% ethanol (PANREAC, ethanol 96%) and 3% hydrogen peroxide for 3 hours, after which they were left in physiological serum overnight. The next day, the sections were stretched on a glass surface and allowed to dry for a few minutes in the open air. The pretreated sections of the pig small intestine were placed on the SRBC agarose rectangles.
Cutting tentacles of the same size is a complicated process due to the contraction and expansion of the tentacles after their manipulation. In order to control the sting area, we design plastic molds obtained through a 3D printer.
Tentacle pieces of approximately 3 cm long were incubated on reductor or inhibitory solutions (Method 3) for 5 minutes. Consecutively, the agarose rectangles were stung by a sting diameter of 57,35 mm^2 for 1 minute. A weight of 0,66 g was applied to ensure the contact between the tentacle and the skin. After the sting process, the plastic molds and the intestine sections were removed and the SRBC's agarose rectangles were stored in the humidification chamber at room temperature. After a period of 22 hours, images of the hemolytic areas were obtained with a camera. Hemolytic areas were calculated using the Fiji version of ImageJ software (J. Schindelin et al., Fiji: an open-source platform for biological-image analysis. Nature methods, 2012, vol. 9, pp. 676-682). Table 2. Inhibitory efficacy on the venom load to P. noctiluca.

| Structure (SMILES) | Inhibitory effect (TSA) using 5% acetic acid as chemical stimulator Discharge (P. noctiluca [1]) | Inhibitory effect (TSA) using 5% acetic acid as chemical stimulator Effect (P. noctiluca [1]) | Venom load - Hemolytic area (%) (P. noctiluca [2]; tentacles incubated 5 minutes in solution, sting 1 minute through pig intestine on sheep red blood cell agarose, read after 22 hours) | % Inhibitory (P. noctiluca [2]; {}) | discharge of nematocysts (P. noctiluca [2]) |
| --- | --- | --- | --- | --- | --- |
| CCO [100% Ethanol, ethanol] | ++ | Neutral/Reductor | – | – | – |
| CC(O)CCO (stereo not drawn) [100% Butylene glycol, butylene glycol] | + | Reductor | 26.54 ± 19.66% | 56.33% | – |
| CC(=O)O [5% Acetic acid solution, acetic acid] | +++ | Activator | – | – | – |
| CC(C)(C)C1CCC(O)CC1 (stereo not drawn) [4-tert-butyl cyclohexanol] | – | – | – | – | significantly reduces |
| CC(O)CO (stereo not drawn) [100% Propylene glycol, propylene glycol] | + | Reductor | – | – | – |
| O=C(CO)c1ccccc1 [HAP, hydroxy acetophenone] | – | – | – | – | significantly reduces |
